Measurements taken from patent US20090042809A1, “Blood Pressure Lowering Protein Hydrolysates” (priority 2005, published 2009).
“Also recorded” adds a separate entry of the source.

Legend:
[1] = system: ACE; assay: at-line ACE inhibition assay (HHL substrate, HPLC read-out); format: biochemical; details: at-line measurements used in the screening phase
From the text: The presence of novel ACE inhibiting peptides in CDBAP was investigated by using 2-dimensional-chromatographic-separation combined with an at-line ACE inhibition assay and mass spectrometry for identification. In the first analysis the peptide mixture was separated on an ODS3 liquid chromatography (LC) column and ACE inhibition profiles were generated from the various fractions obtained. In a second analysis the fractions from the first column showing a high ACE inhibition were further separated on a Biosuite LC column using a different gradient profile. The fractions collected from this second column were split into two parts: one part was used for the at-line ACE inhibition measurement while the other part was subjected to MS and MS-MS analysis to identify the peptides present. […]
The 96 well plate was then analysed on a flash-HPLC-column. […] Hippuric acid (H) and HHL were monitored at 280 nm. The peak heights of H and HHL were measured and the ACE inhibition (ACEI) of each fraction was calculated according to the equation:
[formula] • ACEIα Percentage inhibition of the analyte • Dcw Degree of Cleavage by ACE of HHL to H and HL in water • Dca Degree of Cleavage of HHL to H and HL for the analyte The Degree of Cleavage was calculated by expressing the peak height of H as a fraction of the sum of the peak heights of H and HHL.

[2] = system: ACE; assay: modified Matsui ACE inhibition assay (Hip-His-Leu, TNBS); format: biochemical
Method: To determine the ACE inhibition activity of MAP and ITP, the chemically synthesised tripeptides were assayed according to the method of Matsui et al. (Matsui, T. et al. (1992) Biosci. Biotech. Biochem. 56: 517-518) with some minor modifications.
Each one of the four samples contained 75 μl 3 mM hippuryl histidine leucine (Hip-His-Leu, Sigma Chemicals) dissolved in a 250 mM borate solution containing 200 mM NaCl, pH 8.3. ACE was obtained from Sigma Chemicals. The mixtures were incubated at 37° C. and stopped after 30 min by adding 125 μl 0.5 M HCl. Subsequently, 225 μl bicine/NaOH solution (1 M NaOH: 0.25 M bicine (4:6)) was added, followed by 25 μl 0.1 M TNBS (2,4,6-Trinitrobenzenesulfonic acid, Fluka, Switzerland; in 0.1 M Na2HPO4). After incubation for 20 min. at 37° C., 4 ml 4 mM Na2SO3 in 0.2 M NaH2PO4 was added and the light absorbance at 416 nm was measured with UV/Vis spectrophotometer (Shimadzu UV-1601 with a CPS controller, Netherlands).
The amount of ACE inhibition (ACEI) activity was calculated as a percentage of inhibition compared with the conversion rate of ACE in the absence of an inhibitor according to the following formula:
ACEI (%)=((Control 1−Control 2)−(Sample 1−Sample 2))/(Control 1−Control 2))*100
wherein • Control 1=Absorbance without ACE inhibitory component (=max. ACE activity) [AU]. • Control 2=Absorbance without ACE inhibitory component and without ACE (background) [AU]. • Sample 1=Absorbance in the presence of ACE and the ACE inhibitory component [AU]. • Sample 2=Absorbance in the presence of the ACE inhibitory component, but without ACE [AU].

[3] = biological target: ACE (Homo sapiens, UniProt P12821); details: cited from earlier work; for IC50: Nakamura et al. 1995, Aryoshi 1993, read-out: IC50 values reported earlier for ACE inhibiting peptides; for ACE inhibiting activities reported: in vitro, prior art
[4] = system: spontaneously hypertensive rats; details: tripeptides from fermented milk (Nakamura et al. 1995); cited from earlier work
[5] = gastrointestinal treatment (GIT) simulating digestion with pepsin and pancreatin; format: in vitro ADME, human
Method: After consumption, dietary proteins and peptides are exposed to various digestive enzymatic processes in the gastrointestinal tract. In order to assess the stability of the newly identified bioactive peptides in the human gastrointestinal tract, the CDBAP preparation (prepared as described in Example 7) was subjected to a gastrointestinal treatment (GIT) simulating the digestive conditions typically found in the human body. Samples obtained after various incubation times in the GIT model system were analysed using the on-line HPLC-Bioassay-MS or HRS-MS system to quantify any residual MAP and ITP peptides. The GIT procedure was performed in a standardized mixing device incorporating a 100 ml flask (as supplied by Vankel, US). The temperature of the water bath was set to 37.5° C. and the paddle speed was chosen such that the sample was kept in suspension (100 rpm).
About 3.4 grams of CDBAP (protein level of approx 60%) was dissolved/suspended in 100 ml Milli-Q water. During gastric simulation 5 M HCl was used to decrease the pH. At the end of gastric simulation and during the duodenal phase 5 M NaOH was used to raise the pH.
The CDBAP suspension was preheated to 37.5° C. and 5 ml of the suspension was removed to dissolve 0.31 g of pepsin (Fluka order no. 77161). At t=0 min the 5 ml with the now dissolved pepsin was added back to the suspension. Then the pH of the CDBAP suspension was adjusted slowly by hand using a separate pH meter according to the following scheme:
t=20 min pH decreased to 3.5 t=40 min pH to 3.0 t=50 min pH to 2.3 t=60 min pH to 1.8 t=65 min pH raised to 2.7 t=75 min pH to 3.7 t=80 min pH to 5.3 […]
Then the samples were transferred into a beaker and were placed in a microwave till boiling. […] The total N concentration of the powder as obtained was determined and converted to protein level using the Kjeldahl factor of casein (6.38). […] The levels of MAP and ITP surviving the proteolytic treatment according to the GIT procedure were determined as described in Example 7 and the data obtained are shown in Table 10.

[6] = as restated in the description, read-out: IC50 value in the Modified Matsui test

ACE (Homo sapiens, UniProt P12821), sequence (P12821 30-1306, species assumed): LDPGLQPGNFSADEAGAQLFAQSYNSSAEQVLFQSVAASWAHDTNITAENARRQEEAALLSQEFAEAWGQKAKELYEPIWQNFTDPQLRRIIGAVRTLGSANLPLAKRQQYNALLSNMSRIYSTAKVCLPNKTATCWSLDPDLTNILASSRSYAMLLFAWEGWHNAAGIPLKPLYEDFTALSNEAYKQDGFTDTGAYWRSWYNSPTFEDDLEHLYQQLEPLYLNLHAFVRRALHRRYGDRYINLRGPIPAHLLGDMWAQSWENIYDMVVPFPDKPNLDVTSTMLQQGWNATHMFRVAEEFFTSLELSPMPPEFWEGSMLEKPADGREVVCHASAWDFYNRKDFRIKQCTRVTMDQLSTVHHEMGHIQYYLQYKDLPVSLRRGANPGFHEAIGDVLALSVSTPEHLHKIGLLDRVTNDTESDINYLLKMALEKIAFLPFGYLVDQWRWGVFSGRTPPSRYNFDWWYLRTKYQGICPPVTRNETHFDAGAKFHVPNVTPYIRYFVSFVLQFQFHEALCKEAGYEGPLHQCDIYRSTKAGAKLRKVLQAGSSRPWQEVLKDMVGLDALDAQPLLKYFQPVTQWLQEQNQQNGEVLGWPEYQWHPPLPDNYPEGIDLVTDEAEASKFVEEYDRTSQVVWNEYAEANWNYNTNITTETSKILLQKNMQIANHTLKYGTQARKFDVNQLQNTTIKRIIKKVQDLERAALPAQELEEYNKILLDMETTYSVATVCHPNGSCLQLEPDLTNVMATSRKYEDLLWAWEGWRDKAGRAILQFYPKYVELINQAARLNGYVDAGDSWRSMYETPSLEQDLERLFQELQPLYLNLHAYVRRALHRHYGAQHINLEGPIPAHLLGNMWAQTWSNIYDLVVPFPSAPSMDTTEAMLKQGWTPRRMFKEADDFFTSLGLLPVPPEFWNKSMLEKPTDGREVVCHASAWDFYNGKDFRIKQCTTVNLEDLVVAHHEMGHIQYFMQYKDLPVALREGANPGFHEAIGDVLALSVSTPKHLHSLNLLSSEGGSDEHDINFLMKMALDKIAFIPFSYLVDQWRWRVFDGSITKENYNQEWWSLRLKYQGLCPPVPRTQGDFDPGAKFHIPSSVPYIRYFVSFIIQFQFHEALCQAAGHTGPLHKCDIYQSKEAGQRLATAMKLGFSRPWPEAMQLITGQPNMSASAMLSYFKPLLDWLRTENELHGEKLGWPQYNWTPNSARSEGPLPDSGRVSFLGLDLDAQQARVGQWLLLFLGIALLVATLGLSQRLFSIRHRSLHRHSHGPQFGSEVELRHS

Substance | IC50 [1] | IC50 [2, 6] | IC50 [3] | ACE inhibiting activities reported [3] | antihypertensive effects [4] | Concentration of tripeptide in CDBAP before GIT procedure ([5]; CDBAP (Example 7), before passage) | Concentration of tripeptide in CDBAP after GIT procedure ([5]; CDBAP after GIT, pepsin then pancreatin, 125 min, 37.5° C.) | resistance against GIT digestion ([5]; simulated gastro-intestinal digestion) | IC50 ([2]; chemically synthesized tripeptides, read-out: IC50 value, Modified Matsui assay)
Ile-Pro-Pro (IPP) | 7.1 µM | 2 µM | 5 µM | Strong ACE inhibiting activities | confirmed | – | – | – | –
Val-Pro-Pro [VPP] | – | – | – | Strong ACE inhibiting activities | confirmed | – | – | – | –
Leu-Pro-Pro [LPP] | – | – | 9.6 µM | Strong ACE inhibiting activities | – | – | – | – | –
Ile-Thr-Pro (ITP) | 50 µM | 10 µM | – | – | – | 903.7 μg g^−1 powder | 889.1 μg g^−1 powder | high resistance; also recorded: resist gastrointestinal proteolytic degradation; also recorded: survive | 10 µM
